# Tested on: 935938-334-R-J1-PDC complex spheroid viability
# Assay: Anticancer human tumor 935938-334-R-J1-PDC patient-derived small intestine adenocarcinoma cell line growth inhibition [POLQ]
# Conditions: for IC50: curve of first compound; for viability, T/C: stronger effect = lower value
# How it was run: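 PDC + HUVEC + MSC complex spheroids; POLQ inhibitors ± partner drugs; top conc. at/near clinical Cmax, else 10 microM (SN-38 1 microM), half-log dilutions; 37 degrees C, 5% CO2.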
# [1] = second compound 0.0316 µM, first compound 0.0316 µM
# [2] = second compound 0.0316 µM, first compound 0.1 µM
# [3] = second compound 0.0316 µM, first compound 0.316 µM
# [4] = second compound 0.0316 µM, first compound 1 µM
# [5] = second compound 0.0316 µM, first compound 3.16 µM
# [6] = second compound 0.0316 µM, first compound 10 µM
# [7] = second compound 0.1 µM, first compound 0.0316 µM
# [8] = second compound 0.1 µM, first compound 0.1 µM
# [9] = second compound 0.1 µM, first compound 0.316 µM
# [10] = second compound 0.1 µM, first compound 1 µM
# [11] = second compound 0.1 µM, first compound 3.16 µM
# [12] = second compound 0.1 µM, first compound 10 µM
# [13] = second compound 0.316 µM, first compound 0.0316 µM
# [14] = second compound 0.316 µM, first compound 0.1 µM
# [15] = second compound 0.316 µM, first compound 0.316 µM
# [16] = second compound 0.316 µM, first compound 1 µM
# [17] = second compound 0.316 µM, first compound 3.16 µM
# [18] = second compound 0.316 µM, first compound 10 µM
# [19] = second compound 1 µM, first compound 0.0316 µM
# [20] = second compound 1 µM, first compound 0.1 µM
# [21] = second compound 1 µM, first compound 0.316 µM
# [22] = second compound 1 µM, first compound 1 µM
# [23] = second compound 1 µM, first compound 3.16 µM
# [24] = second compound 1 µM, first compound 10 µM
# [25] = second compound 3.16 µM, first compound 0.0316 µM
# [26] = second compound 3.16 µM, first compound 0.1 µM
# [27] = second compound 3.16 µM, first compound 0.316 µM
# [28] = second compound 3.16 µM, first compound 1 µM
# [29] = second compound 3.16 µM, first compound 3.16 µM
# [30] = second compound 3.16 µM, first compound 10 µM
# [31] = second compound 10 µM, first compound 0.0316 µM
# [32] = second compound 10 µM, first compound 0.1 µM
# [33] = second compound 10 µM, first compound 0.316 µM
# [34] = second compound 10 µM, first compound 1 µM
# [35] = second compound 10 µM, first compound 3.16 µM
# [36] = second compound 10 µM, first compound 10 µM
# 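Further: spheroids exposed to drugs for seven days before viability read.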
# 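Wherever viability, T/C is given: 100% = DMSO vehicle control wells.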
smiles,measurement,setting,value
CCCS(=O)(=O)Nc1ccc(F)c(C(=O)c2c[nH]c3ncc(-c4ccc(Cl)cc4)cc23)c1F + Cc1cccc(N(C)C(=O)C2C(O)CCN2c2nc(C)cc(C(F)(F)F)c2C#N)c1,IC50,second compound 0.0316 µM,> 10 µM
same,IC50,second compound 0.1 µM,9.27 µM
same,IC50,second compound 0.316 µM,9.18 µM
same,IC50,second compound 1 µM,9.75 µM
same,IC50,second compound 3.16 µM,> 10 µM
same,IC50,second compound 10 µM,9.01 µM
same,"viability, T/C",[1],85.3%
same,"viability, T/C",[2],97.4%
same,"viability, T/C",[3],117%
same,"viability, T/C",[4],147%
same,"viability, T/C",[5],146%
same,"viability, T/C",[6],51%
same,"viability, T/C",[7],114%
same,"viability, T/C",[8],119%
same,"viability, T/C",[9],166%
same,"viability, T/C",[10],121%
same,"viability, T/C",[11],112%
same,"viability, T/C",[12],45%
same,"viability, T/C",[13],97.4%
same,"viability, T/C",[14],115%
same,"viability, T/C",[15],119%
same,"viability, T/C",[16],120%
same,"viability, T/C",[17],120%
same,"viability, T/C",[18],44.8%
same,"viability, T/C",[19],95.7%
same,"viability, T/C",[20],125%
same,"viability, T/C",[21],121%
same,"viability, T/C",[22],148%
same,"viability, T/C",[23],131%
same,"viability, T/C",[24],48.2%
same,"viability, T/C",[25],88.9%
same,"viability, T/C",[26],108%
same,"viability, T/C",[27],123%
same,"viability, T/C",[28],151%
same,"viability, T/C",[29],113%
same,"viability, T/C",[30],51.4%
same,"viability, T/C",[31],106%
same,"viability, T/C",[32],109%
same,"viability, T/C",[33],127%
same,"viability, T/C",[34],146%
same,"viability, T/C",[35],149%
same,"viability, T/C",[36],42.1%
Cn1ncnc1[C@H]1c2n[nH]c(=O)c3cc(F)cc(c23)N[C@@H]1c1ccc(F)cc1 + Cc1cccc(N(C)C(=O)C2C(O)CCN2c2nc(C)cc(C(F)(F)F)c2C#N)c1,IC50,second compound 0.0316 µM,> 0.1 µM
same,IC50,second compound 0.1 µM,> 0.1 µM
same,IC50,second compound 0.316 µM,> 0.1 µM
same,IC50,second compound 1 µM,> 0.1 µM
same,IC50,second compound 3.16 µM,> 0.1 µM
same,IC50,second compound 10 µM,> 0.1 µM
same,"viability, T/C","second compound 0.0316 µM, first compound 0.000316 µM",143%
same,"viability, T/C","second compound 0.0316 µM, first compound 0.001 µM",88.6%
same,"viability, T/C","second compound 0.0316 µM, first compound 0.00316 µM",102%
same,"viability, T/C","second compound 0.0316 µM, first compound 0.01 µM",94.5%
same,"viability, T/C",[1],97.8%
same,"viability, T/C",[2],102%
same,"viability, T/C","second compound 0.1 µM, first compound 0.000316 µM",85.5%
same,"viability, T/C","second compound 0.1 µM, first compound 0.001 µM",91.3%
same,"viability, T/C","second compound 0.1 µM, first compound 0.00316 µM",107%
same,"viability, T/C","second compound 0.1 µM, first compound 0.01 µM",143%
same,"viability, T/C",[7],111%
same,"viability, T/C",[8],70%
same,"viability, T/C","second compound 0.316 µM, first compound 0.000316 µM",108%
same,"viability, T/C","second compound 0.316 µM, first compound 0.001 µM",107%
same,"viability, T/C","second compound 0.316 µM, first compound 0.00316 µM",80.5%
same,"viability, T/C","second compound 0.316 µM, first compound 0.01 µM",108%
same,"viability, T/C",[13],91%
same,"viability, T/C",[14],83.4%
same,"viability, T/C","second compound 1 µM, first compound 0.000316 µM",89.8%
same,"viability, T/C","second compound 1 µM, first compound 0.001 µM",99.6%
same,"viability, T/C","second compound 1 µM, first compound 0.00316 µM",97.7%
same,"viability, T/C","second compound 1 µM, first compound 0.01 µM",82.1%
same,"viability, T/C",[19],114%
same,"viability, T/C",[20],60.4%
same,"viability, T/C","second compound 3.16 µM, first compound 0.000316 µM",125%
same,"viability, T/C","second compound 3.16 µM, first compound 0.001 µM",80.8%
same,"viability, T/C","second compound 3.16 µM, first compound 0.00316 µM",105%
same,"viability, T/C","second compound 3.16 µM, first compound 0.01 µM",88.5%
same,"viability, T/C",[25],89.9%
same,"viability, T/C",[26],89.6%
same,"viability, T/C","second compound 10 µM, first compound 0.000316 µM",103%
same,"viability, T/C","second compound 10 µM, first compound 0.001 µM",87.5%
same,"viability, T/C","second compound 10 µM, first compound 0.00316 µM",77.6%
same,"viability, T/C","second compound 10 µM, first compound 0.01 µM",118%
same,"viability, T/C",[31],87.9%
same,"viability, T/C",[32],89%
CCc1cc2c(N3CCc4c(cc(Cn5ccnc5)cc4-c4cn(C)nc4C(F)(F)F)C3=O)cc(C)nc2c(OC)n1 + Cc1cccc(N(C)C(=O)C2C(O)CCN2c2nc(C)cc(C(F)(F)F)c2C#N)c1,IC50,second compound 0.0316 µM,> 10 µM
same,IC50,second compound 0.1 µM,> 10 µM
same,IC50,second compound 0.316 µM,> 10 µM
same,IC50,second compound 1 µM,> 10 µM
same,IC50,second compound 3.16 µM,> 10 µM
same,IC50,second compound 10 µM,> 10 µM
same,"viability, T/C",[1],77.4%
same,"viability, T/C",[2],59%
same,"viability, T/C",[3],74%
same,"viability, T/C",[4],58.9%
same,"viability, T/C",[5],69.4%
same,"viability, T/C",[6],56.7%
same,"viability, T/C",[7],61.9%
same,"viability, T/C",[8],87%
same,"viability, T/C",[9],62.8%
same,"viability, T/C",[10],56.1%
same,"viability, T/C",[11],72%
same,"viability, T/C",[12],63%
same,"viability, T/C",[13],74.7%
same,"viability, T/C",[14],62.6%
same,"viability, T/C",[15],62.4%
same,"viability, T/C",[16],54.8%
same,"viability, T/C",[17],65.5%
same,"viability, T/C",[18],51.6%
same,"viability, T/C",[19],91.2%
same,"viability, T/C",[20],61.9%
same,"viability, T/C",[21],55.6%
same,"viability, T/C",[22],60.9%
same,"viability, T/C",[23],51.7%
same,"viability, T/C",[24],53.2%
same,"viability, T/C",[25],78.3%
same,"viability, T/C",[26],78.3%
same,"viability, T/C",[27],71.6%
same,"viability, T/C",[28],70.7%
same,"viability, T/C",[29],57.1%
same,"viability, T/C",[30],54.2%
same,"viability, T/C",[31],72.7%
same,"viability, T/C",[32],65.8%
same,"viability, T/C",[33],58.9%
same,"viability, T/C",[34],49.5%
same,"viability, T/C",[35],60.3%
same,"viability, T/C",[36],50.8%
